Results from patent US11931429B2, “Chemiluminescent probes for diagnostics and in vivo imaging” (RAMOT AT TEL-AVIV UNIVERSITY LTD., priority 2016, dated 2024).
Entries after “also recorded” stand apart in the source; their conditions may differ.

Tests used:
β-galactosidase [1] = details: Probe 1, known standard (Edwards et al., 1994); cited from earlier work
β-galactosidase [2] = test system: β-galactosidase
Experimental: Spectra were recorded in PBS (100 mM), pH 7.4, in the presence of 1.5 units/mL β-galactosidase (continuous lines). Dotted line is the fluorescence emission spectrum (DCL—direct chemiluminescence).
Fluorescence and chemiluminescence were recorded on Molecular Devices Spectramax i3x.
Chemiluminescence parameters measured for Probes 1, 2 and 3 and their ability to detect and image β-galactosidase. Next, we measured the light emission of the probes, as a function of time, in the presence and in the absence of β-galactosidase.
The chemiluminescence quantum yield (ϕCL) of probes 2 and 3 was calculated using that of Probe 1 as a known standard (Edwards et al., 1994).

[3] = Light-induced decomposition under normal room illumination, monitored by RP-HPLC; type: physicochemical; details: PBS pH 7.4, normal room illumination
Experimental: Probes (300 μM) were incubated in PBS (100 mM), pH 7.4, at ambient temperature.
Light-induced decomposition of dioxetane-dye conjugates. While working on the synthesis of the dioxetane-fluorophore conjugates, we encountered an unexpected phenomenon. Although Probe 1 seemed to be photostable, Probes 2 and 3 appeared to decompose under normal room illumination conditions. We measured the photostability of the probes in aqueous solution (PBS, pH 7.4) under normal room illumination. The light-induced decomposition was monitored over several hours by a RP-HPLC assay (FIG. 2).

COC1(c2cccc(O[C@@H]3OC(CO)[C@H](O)[C@H](O)C3O)c2Cl)OOC12C1CC3CC(C1)CC2C3 (stereo partly shown) [Probe 1, reference compound]
ΦCL (chemiluminescence quantum yield) (β-galactosidase [1]): 3.3 × 10^−5
λmax [nm] (chemiluminescence emission) (β-galactosidase [2]; 1 μM, PBS (100 mM) pH 7.4, 1.5 units/mL β-galactosidase): 470 nm
Relative ΦCL (β-galactosidase [2]; relative to Probe 1): 1
photostability under normal room illumination [3]: photostable; also recorded: unaffected by light
